# Several values for one entry are separate records, joined by “and”; a condition that tells them apart may be missing. Equal values may be shown once. Inconclusive results and toxic doses are left out. Bridge positions count the residues as written; N and C are the ends. Square brackets hold non-standard residues; d marks the D form. Peptide text beside a SMILES is read from it. I, II: the chains in the order shown. * marks the point of attachment. Quinoxaline2carbonyl = O=C(c1cnc2ccccc2n1)*; NMeV = CN[CH](C(=O)O)C(C)C; NMeC = CN[CH](CS)C(=O)O
# Test system: P388 leukemia ip, CD2F1 mice, survival T/C
# Assay: NCI In Vivo Anticancer Drug Screen. Data for tumor model P388 Leukemia (intraperitoneal) in CD2F1 (CDF1) mice
# Conditions: endpoint: median survival time, higher = longer survival
# In short: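 Mice carrying the transplanted tumor received test compound or vehicle. Survival was recorded in each group, and the value is the treated-group measurement divided by that of the vehicle-treated control group.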
# [1] = dose: 50.0 mg/kg/injection, schedule: Q01DX009 (ip), vehicle: saline with Tween-80
# [2] = dose: 100.0 mg/kg/injection, schedule: Q01DX009 (ip), vehicle: saline with Tween-80
# [3] = dose: 200.0 mg/kg/injection, schedule: Q01DX009 (ip), vehicle: saline with Tween-80
# [4] = dose: 6.25 mg/kg/injection, schedule: Q01DX009 (ip), vehicle: water
# [5] = dose: 12.5 mg/kg/injection, schedule: Q01DX009 (ip), vehicle: water
# [6] = dose: 25.0 mg/kg/injection, schedule: Q01DX009 (ip), vehicle: water
# [7] = dose: 50.0 mg/kg/injection, schedule: Q01DX009 (ip), vehicle: water
# [8] = dose: 50.0 mg/kg/injection, schedule: Q01DX005 (ip), vehicle: Klucel (hydroxypropylcellulose) (HPC)
# [9] = dose: 100.0 mg/kg/injection, schedule: Q01DX005 (ip), vehicle: Klucel (hydroxypropylcellulose) (HPC)
# [10] = dose: 200.0 mg/kg/injection, schedule: Q01DX005 (ip), vehicle: Klucel (hydroxypropylcellulose) (HPC)
structure (smiles),measurement,setting,value
Nc1ncnc2c1ncn2CC(O)CN(CCO)CCO (stereo not given) (tested in a mixture with another compound),T/C,"dose: 60.0 mg/kg/injection, schedule: Q01DX005 (ip), vehicle: saline",93 % of control
same,T/C,"dose: 120.0 mg/kg/injection, schedule: Q01DX005 (ip), vehicle: saline",95 % of control
same,T/C,"dose: 240.0 mg/kg/injection, schedule: Q01DX005 (ip), vehicle: saline",94 % of control
CC1(CCl)Nc2ccccc2C(=O)N1c1ccc(F)cc1 (stereo not given),T/C,[1],103 % of control
same,T/C,[2],95 % of control
same,T/C,[3],95 % of control
O=[N+]([O-])c1ccc(Sc2ncccn2)cc1,T/C,"dose: 25.0 mg/kg/injection, schedule: Q04DX002 (ip), vehicle: suspension in saline",108 % of control
same,T/C,"dose: 50.0 mg/kg/injection, schedule: Q04DX002 (ip), vehicle: suspension in saline",94 % of control
same,T/C,"dose: 100.0 mg/kg/injection, schedule: Q04DX002 (ip), vehicle: suspension in saline",101 % of control
same,T/C,"dose: 200.0 mg/kg/injection, schedule: Q04DX002 (ip), vehicle: suspension in saline",100 % of control
same,T/C,"dose: 400.0 mg/kg/injection, schedule: Q04DX002 (ip), vehicle: suspension in saline",96 % of control
Nc1ccc(NCCCC2CCCN3CCCCC23)c2c(=O)c3ccccc3sc12 (stereo not given),T/C,"dose: 13.5 mg/kg/injection, schedule: Q01DX005 (ip), vehicle: saline with Tween-80",104 % of control
same,T/C,"dose: 27.0 mg/kg/injection, schedule: Q01DX005 (ip), vehicle: saline with Tween-80",91 % of control
same,T/C,"dose: 54.0 mg/kg/injection, schedule: Q01DX005 (ip), vehicle: saline with Tween-80",101 % of control
same,T/C,"dose: 100.0 mg/kg/injection, schedule: Q01DX005 (ip), vehicle: saline with Tween-80",110 % of control
same,T/C,"dose: 108.0 mg/kg/injection, schedule: Q01DX005 (ip), vehicle: saline with Tween-80",107 % of control
same,T/C,"dose: 200.0 mg/kg/injection, schedule: Q01DX005 (ip), vehicle: saline with Tween-80",120 % of control
COc1ccc(CCNCCc2ccc(OC)c(OC)c2)cc1OC,T/C,[4],96 % of control
same,T/C,[5],108 % of control
same,T/C,[6],100 % of control
same,T/C,[7],100 % of control
same,T/C,"dose: 100.0 mg/kg/injection, schedule: Q01DX009 (ip), vehicle: water",90 % of control
COc1cc2cc(-c3ccccc3)[n+](C)cc2cc1OC,T/C,"dose: 12.5 mg/kg/injection, schedule: Q01DX001 (ip), vehicle: saline",95 % of control
same,T/C,"dose: 25.0 mg/kg/injection, schedule: Q01DX001 (ip), vehicle: saline",110 % of control
O=[N+]([O-])c1ccc2c(N=Nc3ccc4ccccc4c3O)c(O)cc(S(=O)(=O)O)c2c1,T/C,[2],90 % of control
same,T/C,"dose: 100.0 mg/kg/injection, schedule: Q04DX003 (ip), vehicle: saline with Tween-80",95 % of control
same,T/C,"dose: 200.0 mg/kg/injection, schedule: Q04DX003 (ip), vehicle: saline with Tween-80",100 % of control
same,T/C,"dose: 400.0 mg/kg/injection, schedule: Q04DX003 (ip), vehicle: saline with Tween-80",100 % of control
Oc1cccc(NCNC2Nc3ccccc3N2)c1,T/C,"dose: 15.0 mg/kg/injection, schedule: Q01DX005 (ip), vehicle: saline with Tween-80",94 % of control
same,T/C,"dose: 30.0 mg/kg/injection, schedule: Q01DX005 (ip), vehicle: saline with Tween-80",95 % of control
"CC1NC(=O)C(NC(=O)c2cnc3ccccc3n2)COC(=O)C(C(C)C)N(C)C(=O)C2CSSCC(C(=O)N(C)C(C(C)C)C(=O)OCC(NC(=O)c3cnc4ccccc4n3)C(=O)NC(C)C(=O)N2C)N(C)C1=O (stereo not given) (I: Quinoxaline2carbonyl-SA[NMeC][NMeV] / II: Quinoxaline2carbonyl-SA[NMeC][NMeV]; ester I:1-II:C, I:C-II:1; disulfide I:3-II:3; configuration not given here)",T/C,"dose: 25.0 micrograms/kg/injection, schedule: Q01DX009 (ip), vehicle: water",150 % of control
same,T/C,"dose: 50.0 micrograms/kg/injection, schedule: Q01DX009 (ip), vehicle: water",153 % of control
same,T/C,"dose: 100.0 micrograms/kg/injection, schedule: Q01DX009 (ip), vehicle: water",185 % of control
O=C(NCCCCCCNC(=O)OCOC(=O)NCCCCCCNC(=O)Nc1ccc(SCCO)cc1)Nc1ccc(SCCO)cc1,T/C,"dose: 100.0 mg/kg/injection, schedule: Q04DX003 (ip), vehicle: saline",102 % of control
same,T/C,"dose: 200.0 mg/kg/injection, schedule: Q04DX003 (ip), vehicle: saline",102 % of control
same,T/C,"dose: 400.0 mg/kg/injection, schedule: Q04DX003 (ip), vehicle: saline",99 % of control
N=C(N)c1ccc(N=Nc2ccc(O)c3c2ccc[n+]3[O-])cc1,T/C,"dose: 3.13 mg/kg/injection, schedule: Q01DX005 (ip), vehicle: Klucel (hydroxypropylcellulose) (HPC)",106 % of control
same,T/C,"dose: 6.25 mg/kg/injection, schedule: Q01DX005 (ip), vehicle: Klucel (hydroxypropylcellulose) (HPC)",97 % of control
same,T/C,"dose: 12.5 mg/kg/injection, schedule: Q01DX005 (ip), vehicle: Klucel (hydroxypropylcellulose) (HPC)",106 % of control
same,T/C,"dose: 25.0 mg/kg/injection, schedule: Q01DX005 (ip), vehicle: Klucel (hydroxypropylcellulose) (HPC)",109 % of control and 110 % of control and 117 % of control
same,T/C,[8],117 % of control
same,T/C,[9],103 % of control and 123 % of control
same,T/C,[10],110 % of control
COc1cc2c(cc1OC)C[N+]1(C)CCc3cc(OC)c(OC)cc3C1C2 (stereo not given),T/C,"dose: 10.0 mg/kg/injection, schedule: Q01DX009 (ip), vehicle: saline",111 % of control
same,T/C,"dose: 20.0 mg/kg/injection, schedule: Q01DX009 (ip), vehicle: saline",111 % of control
Cc1cccc([B-]23OCC[N+]2(CNC(=O)C2=C(O)C4(O)C(=O)C5=C(O)c6c(O)cccc6C(C)(O)C5CC4C(N(C)C)C2=O)CCO3)c1 (stereo not given),T/C,[8],97 % of control
same,T/C,[9],111 % of control
same,T/C,[10],118 % of control
CN(C)CCSc1cccc2c1C(=O)c1cccc(SCCN(C)C)c1C2=O,T/C,"dose: 0.78 mg/kg/injection, schedule: Q01DX009 (ip), vehicle: saline",89 % of control
same,T/C,"dose: 1.56 mg/kg/injection, schedule: Q01DX009 (ip), vehicle: saline",90 % of control
same,T/C,"dose: 3.13 mg/kg/injection, schedule: Q01DX009 (ip), vehicle: saline",98 % of control
same,T/C,"dose: 3.13 mg/kg/injection, schedule: Q01DX009 (ip), vehicle: water",105 % of control and 98 % of control
same,T/C,"dose: 6.25 mg/kg/injection, schedule: Q01DX009 (ip), vehicle: saline",86 % of control
same,T/C,[4],99 % of control and 100 % of control
same,T/C,"dose: 12.5 mg/kg/injection, schedule: Q01DX009 (ip), vehicle: saline",121 % of control
same,T/C,[5],101 % of control and 90 % of control
same,T/C,[6],100 % of control and 92 % of control
same,T/C,[7],90 % of control
Clc1ccc2c(NCCN3CCCCCC3)nc(C(Cl)(Cl)Cl)nc2c1,T/C,[1],100 % of control
same,T/C,[2],104 % of control
same,T/C,[3],100 % of control
O=C(CO)N(CCO)CCO,T/C,"dose: 50.0 mg/kg/injection, schedule: Q01DX009 (ip), vehicle: saline",98 % of control
same,T/C,"dose: 100.0 mg/kg/injection, schedule: Q01DX009 (ip), vehicle: saline",95 % of control
same,T/C,"dose: 200.0 mg/kg/injection, schedule: Q01DX009 (ip), vehicle: saline",96 % of control
O=C1OCCC1C(=O)c1ccccc1 (stereo not given),T/C,"dose: 50.0 mg/kg/injection, schedule: Q01DX001 (ip), vehicle: saline",112 % of control
same,T/C,"dose: 100.0 mg/kg/injection, schedule: Q01DX001 (ip), vehicle: saline",112 % of control
same,T/C,"dose: 200.0 mg/kg/injection, schedule: Q01DX001 (ip), vehicle: saline",97 % of control
CC(C)(C)OC(=O)c1ccc(C(=O)OC(C)(C)C)cc1,T/C,"dose: 100.0 mg/kg/injection, schedule: Q04DX002 (ip), vehicle: saline with Tween-80",97 % of control
same,T/C,"dose: 200.0 mg/kg/injection, schedule: Q04DX002 (ip), vehicle: saline with Tween-80",96 % of control
same,T/C,"dose: 400.0 mg/kg/injection, schedule: Q04DX002 (ip), vehicle: saline with Tween-80",96 % of control
